Measurements as given in ChEMBL document CHEMBL1201862, “PubChem BioAssay data set” (2004).
Activity calls are given as the source filed them.

Experiments:
[1] = biological target: Type-1 angiotensin II receptor (Homo sapiens, UniProt P30556); test: antagonism of angiotensin II type 1 receptor – cell-based, uHTS hits, selectivity assay for APJ receptor antagonist project, dose response (AID 463214); format: functional;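 further: antagonist potency against angiotensin II stimulated AT1 response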
[2] = biological target: Beta-galactosidase (Escherichia coli, UniProt Q8VNN2); test: PubChem AID 485352; format: functional
Chain of Beta-galactosidase (Q8VNN2 whole entry): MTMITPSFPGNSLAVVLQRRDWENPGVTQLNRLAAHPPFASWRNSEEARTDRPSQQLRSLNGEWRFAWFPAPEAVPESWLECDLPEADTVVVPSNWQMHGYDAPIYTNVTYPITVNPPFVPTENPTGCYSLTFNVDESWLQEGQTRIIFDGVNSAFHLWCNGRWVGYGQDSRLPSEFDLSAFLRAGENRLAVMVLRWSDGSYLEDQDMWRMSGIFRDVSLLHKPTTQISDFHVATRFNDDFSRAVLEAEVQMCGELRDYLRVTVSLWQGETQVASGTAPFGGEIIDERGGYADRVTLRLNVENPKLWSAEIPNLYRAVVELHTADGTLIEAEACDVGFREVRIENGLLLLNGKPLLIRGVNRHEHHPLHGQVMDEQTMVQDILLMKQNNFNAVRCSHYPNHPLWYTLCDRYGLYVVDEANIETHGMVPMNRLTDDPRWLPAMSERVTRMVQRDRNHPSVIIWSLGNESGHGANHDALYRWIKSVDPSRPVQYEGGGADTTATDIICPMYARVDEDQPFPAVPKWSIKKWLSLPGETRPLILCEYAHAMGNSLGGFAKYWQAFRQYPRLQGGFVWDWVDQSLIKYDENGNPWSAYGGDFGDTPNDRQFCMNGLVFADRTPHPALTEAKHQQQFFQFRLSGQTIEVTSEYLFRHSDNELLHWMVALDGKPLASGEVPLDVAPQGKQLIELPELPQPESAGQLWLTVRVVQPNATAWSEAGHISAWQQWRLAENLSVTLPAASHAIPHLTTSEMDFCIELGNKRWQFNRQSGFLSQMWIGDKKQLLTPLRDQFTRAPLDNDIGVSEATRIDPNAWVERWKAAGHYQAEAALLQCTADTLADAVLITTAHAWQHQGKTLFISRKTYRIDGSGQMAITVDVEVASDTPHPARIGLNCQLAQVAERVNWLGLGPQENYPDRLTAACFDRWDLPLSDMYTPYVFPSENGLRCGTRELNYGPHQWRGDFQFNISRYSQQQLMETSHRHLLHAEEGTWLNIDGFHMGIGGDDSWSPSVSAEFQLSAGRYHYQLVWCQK

[3] = biological target: T1, Histone-lysine N-methyltransferase NSD2 (Homo sapiens, UniProt O96028); format: biochemical
T1 sequence (O96028 whole entry): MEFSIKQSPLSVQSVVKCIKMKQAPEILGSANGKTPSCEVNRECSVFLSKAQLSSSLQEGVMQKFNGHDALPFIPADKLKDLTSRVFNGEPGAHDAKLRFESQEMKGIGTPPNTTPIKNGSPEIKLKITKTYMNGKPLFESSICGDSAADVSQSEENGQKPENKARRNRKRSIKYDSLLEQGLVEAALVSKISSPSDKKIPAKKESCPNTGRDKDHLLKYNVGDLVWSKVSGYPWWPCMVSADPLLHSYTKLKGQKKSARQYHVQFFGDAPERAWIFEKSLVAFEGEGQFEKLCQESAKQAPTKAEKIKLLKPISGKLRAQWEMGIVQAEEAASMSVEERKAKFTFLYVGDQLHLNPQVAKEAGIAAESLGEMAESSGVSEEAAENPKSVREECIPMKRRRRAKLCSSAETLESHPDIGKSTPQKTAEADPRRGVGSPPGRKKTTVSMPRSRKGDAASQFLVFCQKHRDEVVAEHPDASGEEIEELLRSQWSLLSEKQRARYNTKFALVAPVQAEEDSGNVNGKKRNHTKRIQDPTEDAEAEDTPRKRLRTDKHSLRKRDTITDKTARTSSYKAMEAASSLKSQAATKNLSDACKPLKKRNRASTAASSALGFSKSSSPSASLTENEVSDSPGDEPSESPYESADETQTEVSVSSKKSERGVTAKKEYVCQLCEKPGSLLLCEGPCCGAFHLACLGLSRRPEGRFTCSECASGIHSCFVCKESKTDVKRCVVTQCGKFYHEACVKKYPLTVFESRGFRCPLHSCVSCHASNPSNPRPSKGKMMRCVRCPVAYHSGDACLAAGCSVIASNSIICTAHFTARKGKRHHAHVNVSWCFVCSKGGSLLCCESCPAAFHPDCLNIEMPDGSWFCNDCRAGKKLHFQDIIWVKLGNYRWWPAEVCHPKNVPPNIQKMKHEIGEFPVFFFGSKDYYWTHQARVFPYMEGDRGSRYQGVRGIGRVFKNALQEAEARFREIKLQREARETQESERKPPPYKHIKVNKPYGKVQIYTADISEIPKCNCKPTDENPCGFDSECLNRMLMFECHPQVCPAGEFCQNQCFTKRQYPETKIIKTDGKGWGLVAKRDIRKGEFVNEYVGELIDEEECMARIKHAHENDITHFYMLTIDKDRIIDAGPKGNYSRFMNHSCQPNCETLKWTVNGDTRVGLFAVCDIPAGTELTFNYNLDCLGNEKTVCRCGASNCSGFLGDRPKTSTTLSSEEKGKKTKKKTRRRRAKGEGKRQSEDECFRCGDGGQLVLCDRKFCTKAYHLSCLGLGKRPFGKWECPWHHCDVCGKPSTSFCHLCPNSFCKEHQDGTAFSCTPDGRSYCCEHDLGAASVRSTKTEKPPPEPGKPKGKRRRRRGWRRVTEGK

[4] = test system: Salmon testes DNA; test: acridine orange-DNA binding displacement – biochemical, fluorescence polarization, cherry-picked samples, set 2, artefact control for KSHV LANA DNA-binding inhibitor project, dose response (AID 504727); set-up: species or system Salmonidae
[5] = biological target: T2, ORF 73 (Human herpesvirus 8, UniProt O40947); test: KSHV LANA DNA-binding disruption – biochemical, fluorescence polarization, cherry-picked samples, dose response (AID 504725); set-up: species or system Human gammaherpesvirus 8;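 further: fluorescence polarization of a labeled DNA duplex reporting LANA DNA binding; potency is for inhibitors that block LANA binding to the DNA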
T2 sequence (O40947 whole entry): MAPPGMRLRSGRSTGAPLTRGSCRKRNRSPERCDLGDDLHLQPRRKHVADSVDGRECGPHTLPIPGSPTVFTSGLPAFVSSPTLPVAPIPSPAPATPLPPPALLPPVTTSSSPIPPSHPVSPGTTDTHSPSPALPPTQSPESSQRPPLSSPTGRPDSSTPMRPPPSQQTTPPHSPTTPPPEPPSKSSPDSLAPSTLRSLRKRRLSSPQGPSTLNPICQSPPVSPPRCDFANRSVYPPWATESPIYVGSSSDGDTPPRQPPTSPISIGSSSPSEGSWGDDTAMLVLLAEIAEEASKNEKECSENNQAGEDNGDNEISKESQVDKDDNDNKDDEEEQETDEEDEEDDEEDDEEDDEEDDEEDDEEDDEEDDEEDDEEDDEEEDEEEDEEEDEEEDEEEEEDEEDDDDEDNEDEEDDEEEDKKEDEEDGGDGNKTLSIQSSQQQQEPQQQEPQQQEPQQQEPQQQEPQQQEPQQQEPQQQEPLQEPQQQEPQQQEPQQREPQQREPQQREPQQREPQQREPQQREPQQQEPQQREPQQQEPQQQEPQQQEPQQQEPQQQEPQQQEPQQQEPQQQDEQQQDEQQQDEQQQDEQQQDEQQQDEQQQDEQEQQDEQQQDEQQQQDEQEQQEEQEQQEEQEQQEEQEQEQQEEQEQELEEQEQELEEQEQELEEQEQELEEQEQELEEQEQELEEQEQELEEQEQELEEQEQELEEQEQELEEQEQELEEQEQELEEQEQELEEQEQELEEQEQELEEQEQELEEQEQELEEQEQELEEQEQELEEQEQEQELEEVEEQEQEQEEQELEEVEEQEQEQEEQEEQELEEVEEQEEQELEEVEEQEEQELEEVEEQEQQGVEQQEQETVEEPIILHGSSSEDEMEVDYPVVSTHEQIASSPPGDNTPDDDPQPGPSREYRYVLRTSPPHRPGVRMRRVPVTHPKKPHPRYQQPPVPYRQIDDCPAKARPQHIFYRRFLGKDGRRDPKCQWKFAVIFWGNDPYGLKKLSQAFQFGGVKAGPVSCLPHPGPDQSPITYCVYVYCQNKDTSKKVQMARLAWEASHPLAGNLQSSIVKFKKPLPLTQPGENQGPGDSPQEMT

[6] = biological target: T3, Zinc finger protein mex-5 (Caenorhabditis elegans, UniProt Q9XUB2); test: potency of MEX-5 RNA-binding blockers – biochemical, C. elegans, fluorescence polarization, dose response (AID 1960)
T3 sequence (Q9XUB2 whole entry): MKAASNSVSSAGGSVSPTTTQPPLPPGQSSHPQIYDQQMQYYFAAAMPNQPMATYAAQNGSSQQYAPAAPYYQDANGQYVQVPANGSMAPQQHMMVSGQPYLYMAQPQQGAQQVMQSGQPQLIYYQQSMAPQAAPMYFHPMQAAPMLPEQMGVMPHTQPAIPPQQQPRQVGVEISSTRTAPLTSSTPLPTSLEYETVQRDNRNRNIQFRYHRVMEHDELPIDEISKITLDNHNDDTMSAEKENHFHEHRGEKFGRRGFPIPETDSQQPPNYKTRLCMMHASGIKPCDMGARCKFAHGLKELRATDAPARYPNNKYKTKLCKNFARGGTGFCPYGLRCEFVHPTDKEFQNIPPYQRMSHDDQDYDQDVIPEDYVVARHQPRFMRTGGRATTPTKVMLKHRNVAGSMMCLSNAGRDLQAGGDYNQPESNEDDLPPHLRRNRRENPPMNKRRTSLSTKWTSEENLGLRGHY

[7] = biological target: Large T antigen (Simian virus 40, UniProt P03070); format: functional, Betapolyomavirus macacae;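 further: Confirmatory-stage PubChem screen for compounds that inhibit SV40 T antigen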
Chain of Large T antigen (P03070 whole entry, the tested form may be a part): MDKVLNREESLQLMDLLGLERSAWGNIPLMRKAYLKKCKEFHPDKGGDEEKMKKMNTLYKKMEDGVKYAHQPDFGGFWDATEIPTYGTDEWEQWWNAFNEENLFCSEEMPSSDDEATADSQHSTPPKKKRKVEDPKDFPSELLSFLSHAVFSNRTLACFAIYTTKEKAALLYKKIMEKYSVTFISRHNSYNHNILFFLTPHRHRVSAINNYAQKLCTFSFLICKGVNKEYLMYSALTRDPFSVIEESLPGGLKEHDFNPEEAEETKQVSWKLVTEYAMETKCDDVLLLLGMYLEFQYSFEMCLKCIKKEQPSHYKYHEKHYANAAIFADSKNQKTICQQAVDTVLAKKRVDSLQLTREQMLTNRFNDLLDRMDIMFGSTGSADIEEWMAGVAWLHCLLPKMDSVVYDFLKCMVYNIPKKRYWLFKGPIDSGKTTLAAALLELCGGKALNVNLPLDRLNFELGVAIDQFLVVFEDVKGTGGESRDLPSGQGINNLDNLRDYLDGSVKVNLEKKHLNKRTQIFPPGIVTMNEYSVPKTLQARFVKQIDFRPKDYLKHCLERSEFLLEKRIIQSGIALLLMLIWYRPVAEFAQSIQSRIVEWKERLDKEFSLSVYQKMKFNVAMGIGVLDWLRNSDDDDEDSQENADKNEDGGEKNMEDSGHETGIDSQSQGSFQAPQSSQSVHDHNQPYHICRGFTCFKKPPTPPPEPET

[8] = biological target: T4, RNA-binding protein pos-1 (Caenorhabditis elegans, UniProt G5EF15); test: disruptors of C. elegans POS-1 RNA interaction – biochemical, fluorescence polarization, dose response (AID 1964);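 further: purified POS-1 fused to maltose binding protein made in E. coli; potency of compounds blocking POS-1 binding to fluorescent RNA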
T4 sequence (G5EF15 whole entry): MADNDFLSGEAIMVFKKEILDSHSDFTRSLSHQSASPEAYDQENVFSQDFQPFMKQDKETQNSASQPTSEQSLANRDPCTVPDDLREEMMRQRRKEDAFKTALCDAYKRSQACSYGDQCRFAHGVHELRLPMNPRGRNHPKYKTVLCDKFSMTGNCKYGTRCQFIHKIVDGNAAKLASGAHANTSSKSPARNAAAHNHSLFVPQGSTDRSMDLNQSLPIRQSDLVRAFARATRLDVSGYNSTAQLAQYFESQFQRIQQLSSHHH

[9] = test system: HeLa; test: viability loss in HeLa cells – cell-based, 24 h, cherry-picked samples, cytotoxicity control, dose response (AID 504726); format: functional; conditions: Homo sapiens;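 further: potency for cytotoxicity as loss of luminescence signal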
[10] = biological target: Keap1/Nrf2 (Homo sapiens, UniProt Q14145); test: disruptors of Keap1 binding to Nrf2 peptide – biochemical, fluorescence polarization, cherry-picked samples, dose response (AID 588683)
Chain of Keap1/Nrf2 (Q16236 whole entry): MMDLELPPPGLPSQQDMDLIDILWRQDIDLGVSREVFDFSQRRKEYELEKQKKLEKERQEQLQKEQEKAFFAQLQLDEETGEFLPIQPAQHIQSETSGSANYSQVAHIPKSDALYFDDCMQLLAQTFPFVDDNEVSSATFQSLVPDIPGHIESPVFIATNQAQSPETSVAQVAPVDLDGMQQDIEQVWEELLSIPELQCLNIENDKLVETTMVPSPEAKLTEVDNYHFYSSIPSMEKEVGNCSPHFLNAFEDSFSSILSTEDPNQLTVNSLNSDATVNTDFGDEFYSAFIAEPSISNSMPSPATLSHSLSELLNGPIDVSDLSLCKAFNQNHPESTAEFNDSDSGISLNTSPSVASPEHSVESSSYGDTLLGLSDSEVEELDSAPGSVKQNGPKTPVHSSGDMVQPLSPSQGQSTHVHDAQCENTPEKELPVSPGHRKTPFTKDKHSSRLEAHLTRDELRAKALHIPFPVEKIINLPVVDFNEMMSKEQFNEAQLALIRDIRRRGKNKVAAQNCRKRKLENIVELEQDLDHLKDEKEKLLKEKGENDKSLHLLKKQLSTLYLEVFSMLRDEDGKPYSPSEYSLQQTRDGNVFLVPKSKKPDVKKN
Chain of Keap1/Nrf2 (Q14145 whole entry): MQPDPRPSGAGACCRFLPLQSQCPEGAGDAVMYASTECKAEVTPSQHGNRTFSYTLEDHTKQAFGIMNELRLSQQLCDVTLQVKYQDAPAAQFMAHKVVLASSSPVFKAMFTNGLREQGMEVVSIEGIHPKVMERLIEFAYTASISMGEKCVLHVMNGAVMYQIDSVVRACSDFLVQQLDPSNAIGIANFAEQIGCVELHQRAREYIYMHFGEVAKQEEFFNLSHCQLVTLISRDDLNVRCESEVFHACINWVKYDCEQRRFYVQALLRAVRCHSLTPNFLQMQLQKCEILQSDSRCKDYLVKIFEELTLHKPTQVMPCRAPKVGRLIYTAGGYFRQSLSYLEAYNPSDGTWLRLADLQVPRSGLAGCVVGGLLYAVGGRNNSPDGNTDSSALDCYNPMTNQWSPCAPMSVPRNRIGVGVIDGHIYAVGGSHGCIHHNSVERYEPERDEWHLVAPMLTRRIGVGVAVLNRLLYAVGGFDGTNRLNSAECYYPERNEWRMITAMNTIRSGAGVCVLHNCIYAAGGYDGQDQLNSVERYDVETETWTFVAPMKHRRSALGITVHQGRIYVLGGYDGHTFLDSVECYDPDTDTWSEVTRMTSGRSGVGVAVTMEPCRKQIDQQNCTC

[11] = biological target: Dual specificity protein kinase CLK1 (Homo sapiens, UniProt P49759); test: inhibition of human CLK1 activity – biochemical, cherry-picked samples, selectivity assay for Dyrk1A inhibitor project, dose response (AID 588811)
Chain of Dual specificity protein kinase CLK1 (P49759 whole entry): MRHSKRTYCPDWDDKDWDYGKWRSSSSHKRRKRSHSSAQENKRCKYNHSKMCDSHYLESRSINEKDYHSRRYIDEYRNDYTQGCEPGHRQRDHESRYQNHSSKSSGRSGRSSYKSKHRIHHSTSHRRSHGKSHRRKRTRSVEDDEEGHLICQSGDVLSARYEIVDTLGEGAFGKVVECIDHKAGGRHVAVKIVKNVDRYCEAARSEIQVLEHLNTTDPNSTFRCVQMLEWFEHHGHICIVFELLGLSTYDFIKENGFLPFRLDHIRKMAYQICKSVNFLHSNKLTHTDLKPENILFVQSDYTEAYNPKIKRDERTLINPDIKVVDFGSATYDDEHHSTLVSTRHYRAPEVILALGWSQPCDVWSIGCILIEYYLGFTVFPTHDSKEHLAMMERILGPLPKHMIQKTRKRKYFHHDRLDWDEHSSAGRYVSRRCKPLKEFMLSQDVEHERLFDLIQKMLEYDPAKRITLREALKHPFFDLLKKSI

[12] = test system: Escherichia coli; test: microbe, parasite or virus in culture
[13] = NIH-3T3 fibroblast cytotoxicity, dose response, cytotoxicity control, cell-based, fluorescence, Alamar Blue, secondary assay (AID 2327); format: functional;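 further: NIH-3T3 mouse fibroblasts cultured with fluconazole at 8 µg/mL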
[14] = test system: INS1; test: INS-1E survival protection against cytokine death – cell-based, luminescence, retest, dose response (AID 449756); format: functional; conditions: Rattus norvegicus;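 further: cell death triggered by IL-1 beta plus TNF-alpha plus IFN-gamma mixture; protective hits raise ATP signal compared with cytokine alone wells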
[15] = cells; format: functional, cell-based
[16] = cells; format: functional, cell-based; remark: listed apart in the source
[17] = biological target: ATP-dependent molecular chaperone HSP82 (Candida albicans (strain WO-1) (Yeast), UniProt C4YTQ8); test: steroid-induced GRE reporter decrease in yeast – S. cerevisiae, luminescence, Hsp90 inhibitor project, dose response (AID 2400); format: functional, cell-based;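 further: beta-galactosidase luminescence from glucocorticoid response element reporter as proxy for Hsp90 function; inhibitor potency where signal loss means Hsp90 inhibition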
Chain of ATP-dependent molecular chaperone HSP82 (C4YTQ8 whole entry): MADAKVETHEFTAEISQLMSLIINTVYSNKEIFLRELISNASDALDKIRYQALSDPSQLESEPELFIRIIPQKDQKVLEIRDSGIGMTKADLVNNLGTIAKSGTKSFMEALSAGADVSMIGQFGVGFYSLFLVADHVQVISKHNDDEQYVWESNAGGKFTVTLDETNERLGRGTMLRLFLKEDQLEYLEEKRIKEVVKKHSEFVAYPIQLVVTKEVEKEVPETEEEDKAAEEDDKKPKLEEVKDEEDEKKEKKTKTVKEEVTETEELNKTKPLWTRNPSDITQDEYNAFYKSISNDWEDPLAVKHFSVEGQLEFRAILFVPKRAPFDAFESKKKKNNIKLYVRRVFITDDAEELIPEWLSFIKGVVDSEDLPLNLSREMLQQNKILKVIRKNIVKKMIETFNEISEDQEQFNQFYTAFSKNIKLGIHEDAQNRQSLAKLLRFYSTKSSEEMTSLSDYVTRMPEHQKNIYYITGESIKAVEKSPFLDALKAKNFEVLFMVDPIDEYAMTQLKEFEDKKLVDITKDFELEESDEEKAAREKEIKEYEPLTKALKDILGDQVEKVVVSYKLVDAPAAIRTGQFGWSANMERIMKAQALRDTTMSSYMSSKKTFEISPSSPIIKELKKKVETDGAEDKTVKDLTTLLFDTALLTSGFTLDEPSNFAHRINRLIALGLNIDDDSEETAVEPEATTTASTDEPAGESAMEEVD

[18] = test system: A-375; test: MITF: Counter assay: A375 proliferation Measured in Cell-Based System Using Plate Reader - 2084-03_Inhibitor_Dose_DryPowder_Activity. [Related pubchem assays (depositor defined):AID488944]; format: functional; conditions: Homo sapiens
[19] = biological target: T5, Microphthalmia-associated transcription factor (Homo sapiens, UniProt O75030); test: reducers of TRPM1 reporter luminescence, concentration series – cell-based, SK-MEL-5, cherry-picked, set 3, MITF inhibitor project, dose response (AID 493073); format: functional;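 further: SK-MEL-5 melanoma cells with luciferase driven by the MITF target TRPM1 promoter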
T5 sequence (O75030 whole entry): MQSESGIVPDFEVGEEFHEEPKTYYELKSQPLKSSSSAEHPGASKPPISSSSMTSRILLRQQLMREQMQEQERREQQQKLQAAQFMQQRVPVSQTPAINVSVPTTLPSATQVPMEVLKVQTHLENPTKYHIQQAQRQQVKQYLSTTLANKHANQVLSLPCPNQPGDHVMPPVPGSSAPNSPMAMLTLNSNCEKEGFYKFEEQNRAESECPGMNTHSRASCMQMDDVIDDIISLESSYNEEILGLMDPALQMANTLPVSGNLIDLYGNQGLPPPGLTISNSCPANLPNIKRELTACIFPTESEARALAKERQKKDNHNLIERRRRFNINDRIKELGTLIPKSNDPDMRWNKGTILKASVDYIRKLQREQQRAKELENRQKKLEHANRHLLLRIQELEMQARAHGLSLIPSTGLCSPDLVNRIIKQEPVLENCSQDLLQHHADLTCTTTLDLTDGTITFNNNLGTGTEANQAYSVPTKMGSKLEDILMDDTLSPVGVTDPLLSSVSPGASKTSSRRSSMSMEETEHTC

[20] = biological target: T6, Serine/threonine-protein phosphatase (Candida dubliniensis (strain CD36 / CBS 7987 / NCPF 3949 / NRRLY-17841) (Yeast), UniProt B9W6M3); test: blockers of CaCl2-induced CDRE-lacZ signaling – S. cerevisiae, luminescence, secondary, dose response (AID 2388); format: functional, cell-based;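 further: yeast reporter cells carrying a calcineurin-responsive lacZ construct stimulated with calcium chloride; luminescent beta-galactosidase reporter signal in whole cells rather than isolated phosphatase activity; potency for inhibition where a drop in reporter signal means calcineurin blockade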
T6 sequence (B9W6M3 whole entry): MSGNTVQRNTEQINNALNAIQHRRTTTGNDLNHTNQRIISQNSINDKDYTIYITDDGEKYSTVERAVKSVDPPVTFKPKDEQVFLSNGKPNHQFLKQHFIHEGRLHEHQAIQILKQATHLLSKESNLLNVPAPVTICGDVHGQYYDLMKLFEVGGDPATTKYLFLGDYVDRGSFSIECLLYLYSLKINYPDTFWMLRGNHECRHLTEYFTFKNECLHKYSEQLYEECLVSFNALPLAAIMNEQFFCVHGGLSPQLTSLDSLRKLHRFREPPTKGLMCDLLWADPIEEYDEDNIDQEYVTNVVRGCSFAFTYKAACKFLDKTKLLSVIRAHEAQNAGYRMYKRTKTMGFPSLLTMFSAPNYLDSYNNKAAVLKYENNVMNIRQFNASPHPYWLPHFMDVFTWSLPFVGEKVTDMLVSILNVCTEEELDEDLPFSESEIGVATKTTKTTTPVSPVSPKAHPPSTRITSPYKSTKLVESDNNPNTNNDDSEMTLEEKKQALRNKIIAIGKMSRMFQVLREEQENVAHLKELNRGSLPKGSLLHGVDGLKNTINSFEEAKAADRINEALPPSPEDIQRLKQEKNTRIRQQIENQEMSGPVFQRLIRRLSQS

[21] = fluconazole-exposed Candida albicans growth modulators – fluorescence, retest, confirmation (AID 2467); format: functional, cell-based

Chain of Type-1 angiotensin II receptor (P30556 whole entry): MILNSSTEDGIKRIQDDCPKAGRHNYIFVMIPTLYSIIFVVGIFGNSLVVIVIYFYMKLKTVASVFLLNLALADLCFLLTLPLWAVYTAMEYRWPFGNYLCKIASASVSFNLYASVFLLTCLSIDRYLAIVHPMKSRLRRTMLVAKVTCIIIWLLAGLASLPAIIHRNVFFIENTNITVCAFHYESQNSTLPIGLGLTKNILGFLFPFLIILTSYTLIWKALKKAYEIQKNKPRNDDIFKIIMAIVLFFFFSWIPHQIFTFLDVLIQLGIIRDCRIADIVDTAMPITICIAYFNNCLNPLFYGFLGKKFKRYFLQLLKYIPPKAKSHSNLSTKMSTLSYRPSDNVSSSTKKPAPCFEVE

O=C(OCC(=O)c1ccc(Cl)cc1Cl)c1ccc2c(c1)C(=O)N(c1cccc3ncccc13)C2=O
IC50 [1]: 39.4 µM (not active) | EC50 [2]: > 40 µM (inactive)

O=C(O)CCNc1ccc(NCCC(=O)O)c2c1C(=O)c1ccccc1C2=O
AC50 [3]: 11.2 µM (active) | AC50 [4]: 37.8 µM (active) | AC50 [5]: 22.8 µM (active) | EC50 [6]: 15.3 µM (inconclusive) | IC50 [7]: 26.7 µM (active) | EC50 [8]: 12.9 µM (active) | AC50 [9]: 35 µM (active) | AC50 [10]: > 52 µM (inactive)

FC(F)(F)c1cccc(Nc2nccc(-c3ccc4c(c3)OCO4)n2)c1
AC50 [11]: 15.7 µM (active)

CCc1nc2nc(C)c(NS(=O)(=O)c3ccc(Cl)s3)c(O)n2n1
AC50 [12]: 65.8 µM (active)

CCN(CC)c1ccc(/C=N/NC(=O)c2cccc(S(=O)(=O)N3CCOCC3)c2)c(O)c1
EC50 [13]: 12.5 µM (inconclusive) | AC50 [14]: 0.358 µM (active) | EC50 [15]: 28.5 µM (active) | EC50 [16]: 2.85 µM (active) | EC50 [17]: > 160 µM (inactive) | AC50 [18]: 47.2 µM (active) | AC50 [19]: 1.52 µM (active) | EC50 [20]: > 180 µM (inactive) | EC50 [21]: 0.769 µM (active)
